This note sets out measurements from US10604554B2, “Double-acylated GLP-1 derivatives” (Novo Nordisk A/S, priority 2012, dated 2020).

A word on the EC50: it is the concentration at which the effect is half-maximal. Usually IC50 stands for the point on the concentration scale where inhibition reaches its midpoint.

Structures are written as SMILES.

The target in experiment [1] is T1, human GLP-1 receptor (Homo sapiens, UniProt P43220).
T1 construct: expressed in transfected cells; host or cells: BHK cells, clone FCW467-12A/KZ10-1 (parent line BHKTS13), further transfected with CRE luciferase
T1 sequence (P43220 24-463): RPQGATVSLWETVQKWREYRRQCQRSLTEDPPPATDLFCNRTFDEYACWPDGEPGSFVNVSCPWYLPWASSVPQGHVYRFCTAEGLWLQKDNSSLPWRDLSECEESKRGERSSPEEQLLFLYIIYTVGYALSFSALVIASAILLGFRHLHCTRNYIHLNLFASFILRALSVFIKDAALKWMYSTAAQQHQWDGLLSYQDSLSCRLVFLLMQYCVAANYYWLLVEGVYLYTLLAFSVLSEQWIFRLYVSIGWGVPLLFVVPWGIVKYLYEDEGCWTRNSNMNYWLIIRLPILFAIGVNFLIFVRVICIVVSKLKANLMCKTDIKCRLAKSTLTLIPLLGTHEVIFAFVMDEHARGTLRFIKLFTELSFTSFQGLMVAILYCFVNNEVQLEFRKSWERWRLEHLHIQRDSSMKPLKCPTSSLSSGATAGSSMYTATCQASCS
The experiment can be described thus: In vitro potency (CRE luciferase; whole cells). Details: EC50/pM (ratio 1% HSA/0% HSA): unit not given here. Format: cell-based. Particulars: for EC50: BHK cells; for EC50/pM (ratio 1% HSA/0% HSA): ratio of EC50 at 1% HSA to EC50 at 0% HSA. As to the method:
The purpose of this example is to test the activity, or potency, of the GLP-1 derivatives in vitro. The in vitro potency is the measure of human GLP-1 receptor activation in a whole cell assay.
In vitro potency was determined by measuring the response of human GLP-1 receptor in a reporter gene assay. The assay was performed in a stably transfected BHK cell line that expresses the human GLP-1 receptor and contains the DNA for the cAMP response element (CRE) coupled to a promoter and the gene for firefly luciferase (CRE luciferase). When the human GLP-1 receptor was activated it results in the production of cAMP, which in turn results in the luciferase protein being expressed. When assay incubation was completed the luciferase substrate (luciferin) was added and the enzyme converts luciferin to oxyluciferin and produces bioluminescence. The luminescence was measured and was the readout for the assay.
An increase of the in vitro potency, EC50 value, in the presence of serum albumin indicates an affinity to serum albumin and represents a method to predict a protracted pharmacokinetic profile of the test substance in animal models.
The cells were cultured at 5% CO2 in cell culture medium. They were aliquoted and stored in liquid nitrogen. Before each assay an aliquot was taken up and washed twice in PBS before being suspended at the desired concentration in the assay specific buffer.
The following chemicals were used in the assay: Pluronic F-68 (10%) (Gibco 2404), human serum albumin (HSA) (Sigma A9511), ovalbumin (Sigma A5503), DMEM w/o phenol red (Gibco 11880-028), 1 M Hepes (Gibco 15630), Glutamax 100× (Gibco 35050) and steadylite plus (PerkinElmer 6016757).
1) Cell stocks were thawed in a 37° C. water bath.
2) Cells were washed three times in PBS.
3) The cells were counted and adjusted to 5×10^3 cells/50 μl (1×10^5 cells/ml) in assay medium. A 50 μl aliquot of cells was transferred to each well in the assay plate.
4) Stocks of the test compounds and reference compounds were diluted to a concentration of 0.2 μM in 0% assay buffer for the 0% HSA CRE luciferase assay and 1% assay buffer for the HSA CRE luciferase assay. […] 5) A 50 μl aliquot of compound or blank was transferred in triplicate from the dilution plate to the assay plate. […] 7) The assay plate was removed from the incubator and allowed to stand at room temperature for 15 min. 8) A 100 μl aliquot of steadylite plus reagent was added to each well of the assay plate (reagent was light sensitive). 9) Each assay plate was covered with aluminum foil to protect it from light and shaken for 30 min at room temperature. 10) Each assay plate was read in a Packard TopCount NXT instrument. Calculations and Results
The data from the TopCount instrument were transferred to GraphPad Prism software. The software averages the values for each replicate and performs a non-linear regression.

The target of experiment [2] is T1, human GLP-1 receptor. The experiment can be described thus: GLP-1 receptor binding (SPA, displacement of 125I-GLP-1). The protocol:
The purpose of this experiment is to investigate the binding to the GLP-1 receptor of the GLP-1 derivatives, and how the binding is potentially influenced by the presence of albumin. This is done in an in vitro experiment as described below.
In order to test the binding of the derivatives to albumin, the assay was performed with a low concentration of albumin (0.001%—corresponding to the residual amount thereof in the tracer), as well as with a high concentration of albumin (2.0% added). A shift in the binding affinity, IC50, is an indication that the peptide in question binds to albumin, and thereby a prediction of a potential protracted pharmacokinetic profile of the peptide in question in animal models.
Species (in vitro): Hamster
Biological End Point: Receptor Binding
A stable transfected cell line and a high expressing clone were selected for screening. The cells were grown at 5% CO2 in DMEM, 10% FCS, 1% Pen/Strep (Penicillin/Streptomycin) and 1.0 mg/ml of the selection marker G418.
The cells (approx. 80% confluence) were washed twice in PBS and harvested with Versene (aqueous solution of the tetrasodium salt of ethylenediaminetetraacetic acid), following which they were separated by centrifugation at 1000 rpm for 5 min. The cells/cell pellet must be kept on ice to the extent possible in the subsequent steps. The cell pellet was homogenised with Ultrathurrax for 20-30 seconds in a suitable amount of Buffer 1 (depending on the amount of cells, but e.g. 10 ml). The homogenate was centrifuged at 20000 rpm for 15 minutes. The pellet was resuspended (homogenised) in 10 ml Buffer 2 and re-centrifuged. This step was repeated once more. The resulting pellet was resuspended in Buffer 2, and the protein concentration was determined. The membranes were stored at minus 80° C.
Buffer 1:20 mM Na-HEPES+10 mM EDTA, pH 7.4
Buffer 2:20 mM Na-HEPES+0.1 mM EDTA, pH 7.4
Test compounds, membranes, SPA-particles and [^125I]-GLP-1(7-36)NH2 were diluted in assay buffer. 50 ul (micro liter) HSA (“high albumin” experiment containing 2% HSA), or buffer (“low albumin” experiment containing 0.001% HSA) was added to Optiplate, and 25 ul of test compounds were added. 5-10 ug membrane protein/sample was added (50 ul) corresponding to 0.1-0.2 mg protein/ml (to be preferably optimised for each membrane preparation). SPA-particles (Wheatgerm agglutinin SPA beads, Perkin Elmer, # RPNQ0001) were added in an amount of 0.5 mg/well (50 ul). The incubation was started with [^125I]-GLP-1]-(7-36)NH2 (final concentration 0.06 nM corresponding to 49.880 DPM, 25 ul). The plates were sealed with PlateSealer and incubated for 120 minutes at 30° C. while shaking. The plates were centrifuged (1500 rpm, 10 min) and counted in Topcounter.
In general terms: Loss of bound radioactivity is the signal in a displacement assay; it reports binding, not function.

Where [3] appears, read: In vitro potency (CRE luciferase) EC50 (0% HSA), 0% HSA.
[4] abbreviates: In vitro potency (CRE luciferase) EC50 (1% HSA), 1% HSA.
The mark [5] stands for this setting: Receptor binding affinity IC50 (high HSA), 2.0% HSA (high albumin).
The mark [6] stands for this setting: Receptor binding affinity IC50 (low HSA), 0.001% HSA (low albumin).

Consider `CC[C@H](C)[C@H](NC(=O)[C@H](Cc1ccccc1)NC(=O)[C@H](CCC(=O)O)NC(=O)[C@H](CCCCNC(=O)[C@@H](N)CCCCNC(=O)[C@@H](N)CCCCNC(=O)COCCOCCNC(=O)CC[C@H](NC(=O)CCCCCCCCCCOc1ccc(C(=O)O)cc1)C(=O)O)NC(=O)[C@H](C)NC(=O)[C@H](C)NC(=O)[C@H](CCC(N)=O)NC(=O)CNC(=O)[C@H](CCC(=O)O)NC(=O)[C@H](CC(C)C)NC(=O)[C@H](Cc1ccc(O)cc1)NC(=O)[C@H](CO)NC(=O)[C@H](CO)NC(=O)[C@@H](NC(=O)[C@H](CC(=O)O)NC(=O)[C@H](CO)NC(=O)[C@@H](NC(=O)[C@H](Cc1ccccc1)NC(=O)[C@@H](NC(=O)CNC(=O)[C@H](CCC(=O)O)NC(=O)C(C)(C)NC(=O)[C@@H](N)Cc1c[nH]cn1)[C@@H](C)O)[C@@H](C)O)C(C)C)C(=O)N[C@@H](C)C(=O)N[C@@H](Cc1c[nH]c2ccccc12)C(=O)N[C@@H](CC(C)C)C(=O)N[C@H](C(=O)N[C@@H](CCCNC(=N)N)C(=O)NCC(=O)N[C@@H](CCCNC(=N)N)C(=O)N[C@@H](CCCCNC(=O)[C@@H](N)CCCCNC(=O)[C@@H](N)CCCCNC(=O)COCCOCCNC(=O)CC[C@H](NC(=O)CCCCCCCCCCOc1ccc(C(=O)O)cc1)C(=O)O)C(=O)O)C(C)C` [Example 34, N^ε26-[(2S)-2-amino-6-[[(2S)-2-amino-6-[[2-[2-[2-[[(4S)-4-carboxy-4-[11-(4-carboxyphenoxy)undecanoylamino]butanoyl]amino]ethoxy]ethoxy]acetyl]amino]hexanoyl]amino]hexanoyl], N^ε37-[(2S)-2-amino-6-[[(2S)-2-amino-6-[[2-[2-[2-[[(4S)-4-carboxy-4-[11-(4-carboxyphenoxy)undecanoylamino]butanoyl]amino]ethoxy]ethoxy]acetyl]amino]hexanoyl]amino]hexanoyl]-[Aib^8,Arg^34,Lys^37]-GLP-1-(7-37)-peptide], for which the EC50 was determined as 7.9 pM at human GLP-1 receptor [1] (setting [3]) and 59 pM on human GLP-1 receptor [1] (setting [4]). Besides, at human GLP-1 receptor [1], the “EC50/pM (ratio 1% HSA/0% HSA)” value came out at 9.1. In addition, the IC50 on human GLP-1 receptor [2] (setting [5]) amounted to 45000 pM; at human GLP-1 receptor [2] (setting [6]) it was 120 pM.
With `CC[C@H](C)[C@H](NC(=O)[C@H](Cc1ccccc1)NC(=O)[C@H](CCC(=O)O)NC(=O)[C@H](CCCCNC(=O)[C@@H](N)CCCCNC(=O)[C@@H](N)CCCCNC(=O)CC[C@H](NC(=O)CC[C@H](NC(=O)CCCCCCCCCCOc1ccc(C(=O)O)cc1)C(=O)O)C(=O)O)NC(=O)[C@H](C)NC(=O)[C@H](C)NC(=O)[C@H](CCC(N)=O)NC(=O)CNC(=O)[C@H](CCC(=O)O)NC(=O)[C@H](CC(C)C)NC(=O)[C@H](Cc1ccc(O)cc1)NC(=O)[C@H](CO)NC(=O)[C@H](CO)NC(=O)[C@@H](NC(=O)[C@H](CC(=O)O)NC(=O)[C@H](CO)NC(=O)[C@@H](NC(=O)[C@H](Cc1ccccc1)NC(=O)[C@@H](NC(=O)CNC(=O)[C@H](CCC(=O)O)NC(=O)C(C)(C)NC(=O)[C@@H](N)Cc1c[nH]cn1)[C@@H](C)O)[C@@H](C)O)C(C)C)C(=O)N[C@@H](C)C(=O)N[C@@H](Cc1c[nH]c2ccccc12)C(=O)N[C@@H](CC(C)C)C(=O)N[C@H](C(=O)N[C@@H](CCCNC(=N)N)C(=O)NCC(=O)N[C@@H](CCCNC(=N)N)C(=O)N[C@@H](CCCCNC(=O)[C@@H](N)CCCCNC(=O)[C@@H](N)CCCCNC(=O)CC[C@H](NC(=O)CC[C@H](NC(=O)CCCCCCCCCCOc1ccc(C(=O)O)cc1)C(=O)O)C(=O)O)C(=O)O)C(C)C` [Example 38, N^ε26-[(2S)-2-amino-6-[[(2S)-2-amino-6-[[(4S)-4-carboxy-4-[[(4S)-4-carboxy-4-[11-(4-carboxyphenoxy)undecanoylamino]butanoyl]amino]butanoyl]amino]hexanoyl]amino]hexanoyl], N^ε37-[(2S)-2-amino-6-[[(2S)-2-amino-6-[[(4S)-4-carboxy-4-[[(4S)-4-carboxy-4-[11-(4-carboxyphenoxy)undecanoylamino]butanoyl]amino]butanoyl]amino]hexanoyl]amino]hexanoyl]-[Aib^8,Arg^34,Lys^37]-GLP-1-(7-37)-peptide], the values for the EC50 on human GLP-1 receptor [1] (setting [3]) and on human GLP-1 receptor [1] (setting [4]) were 7.6 pM and 189 pM, respectively. This molecule also came in with an IC50 on human GLP-1 receptor [2] (setting [5]) of 53000 pM.
With `CC[C@H](C)[C@H](NC(=O)[C@H](Cc1ccccc1)NC(=O)[C@H](CCC(=O)O)NC(=O)[C@H](CCCCNC(=O)[C@@H](N)CCCCNC(=O)[C@@H](N)CCCCNC(=O)CC[C@H](NC(=O)CCCCCCCCCOc1ccc(C(=O)O)cc1)C(=O)O)NC(=O)[C@H](C)NC(=O)[C@H](C)NC(=O)[C@H](CCC(N)=O)NC(=O)CNC(=O)[C@H](CCC(=O)O)NC(=O)[C@H](CC(C)C)NC(=O)[C@H](Cc1ccc(O)cc1)NC(=O)[C@H](CO)NC(=O)[C@H](CO)NC(=O)[C@@H](NC(=O)[C@H](CC(=O)O)NC(=O)[C@H](CO)NC(=O)[C@@H](NC(=O)[C@H](Cc1ccccc1)NC(=O)[C@@H](NC(=O)CNC(=O)[C@H](CCC(=O)O)NC(=O)C(C)(C)NC(=O)[C@@H](N)Cc1c[nH]cn1)[C@@H](C)O)[C@@H](C)O)C(C)C)C(=O)N[C@@H](C)C(=O)N[C@@H](Cc1c[nH]cn1)C(=O)N[C@@H](CC(C)C)C(=O)N[C@H](C(=O)N[C@@H](CCC(N)=O)C(=O)NCC(=O)N[C@@H](CCCNC(=N)N)C(=O)N[C@@H](CCCCNC(=O)[C@@H](N)CCCCNC(=O)[C@@H](N)CCCCNC(=O)CC[C@H](NC(=O)CCCCCCCCCOc1ccc(C(=O)O)cc1)C(=O)O)C(=O)O)C(C)C` [Example 32, N^ε26-[(2S)-2-amino-6-[[(2S)-2-amino-6-[[(4S)-4-carboxy-4-[10-(4-carboxyphenoxy)decanoylamino]butanoyl]amino]hexanoyl]amino]hexanoyl], N^ε37-[(2S)-2-amino-6-[[(2S)-2-amino-6-[[(4S)-4-carboxy-4-[10-(4-carboxyphenoxy)decanoylamino]butanoyl]amino]hexanoyl]amino]hexanoyl]-[Aib^8,His^31,Gln^34,Lys^37]-GLP-1-(7-37)-peptide], the results for the EC50 on human GLP-1 receptor [1] (setting [3]) and at human GLP-1 receptor [1] (setting [4]) were 11 pM and 162 pM, respectively. At human GLP-1 receptor [1], the “EC50/pM (ratio 1% HSA/0% HSA)” value was determined as 14. For the same molecule, the IC50 on human GLP-1 receptor [2] (setting [5]) worked out at 27000 pM; at human GLP-1 receptor [2] (setting [6]), 1570 pM.
